Test results taken from PubChem BioAssay AID330 (DTP/NCI, 2004).
Where “and” joins values, the source holds several entries; their conditions need not be identical. Equal values may be shown once. Inconclusive results and toxic doses are left out. Rule for the calls: active = survival T/C of 150% or more; inactive = T/C below 125% in these data.

Test system: P388 leukemia ip, CD2F1 mice, survival T/C
Assay: NCI In Vivo Anticancer Drug Screen. Data for tumor model P388 Leukemia (intraperitoneal) in CD2F1 (CDF1) mice
Details: endpoint: median survival time, higher = longer survival
Procedure, shortened: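 Mice carrying the transplanted tumor received test compound or vehicle. Survival was recorded in each group, and the value is the treated-group measurement divided by that of the vehicle-treated control group.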

[1] = dose: 50.0 mg/kg/injection, schedule: Q01DX005 (ip), vehicle: saline with Tween-80
[2] = dose: 100.0 mg/kg/injection, schedule: Q01DX005 (ip), vehicle: saline with Tween-80
[3] = dose: 200.0 mg/kg/injection, schedule: Q01DX005 (ip), vehicle: saline with Tween-80
[4] = dose: 50.0 mg/kg/injection, schedule: Q01DX005 (ip), vehicle: saline
[5] = dose: 100.0 mg/kg/injection, schedule: Q01DX005 (ip), vehicle: saline
[6] = dose: 50.0 mg/kg/injection, schedule: Q01DX009 (ip), vehicle: saline
[7] = dose: 100.0 mg/kg/injection, schedule: Q01DX009 (ip), vehicle: saline
[8] = dose: 50.0 mg/kg/injection, schedule: Q01DX009 (ip), vehicle: saline with Tween-80
[9] = dose: 200.0 mg/kg/injection, schedule: Q04DX003 (ip), vehicle: Klucel (hydroxypropylcellulose) (HPC)
[10] = dose: 60.0 mg/kg/injection, schedule: Q01DX005 (ip), vehicle: saline with Tween-80
[11] = dose: 120.0 mg/kg/injection, schedule: Q01DX005 (ip), vehicle: saline with Tween-80

Measured: T/C

COc1cccc2c1C(=O)c1c(O)c(C(CC(=O)O)OC3CC(N)C(O)C(C)O3)c(CO)c(O)c1C2=O (stereo not given)
inactive: dose: 100.0 mg/kg/injection, schedule: Q04DX003 (ip), vehicle: water 106 % of control | dose: 200.0 mg/kg/injection, schedule: Q04DX003 (ip), vehicle: water 110 % of control

CC1=CC[C@@H]2C(C#N)C3(CCC12C)OCCO3 (stereo not given in full)
inactive: [1] 92 % of control | [2] 94 % of control | [3] 94 % of control

CC1CC(C)CN(C)C1 (stereo not given)
inactive: [4] 100 % of control | [5] 100 % of control

CC1=N[C@@H](N2CCOCC2)[C@H](N2CCOCC2)N1c1ccccc1
inactive: [4] 100 % of control | [5] 107 % of control | dose: 200.0 mg/kg/injection, schedule: Q01DX005 (ip), vehicle: saline 102 % of control

Cc1cc2nc3ccc(N(C)C)cc3nc2cc1N
inactive: dose: 12.5 mg/kg/injection, schedule: Q01DX005 (ip), vehicle: saline 96 % of control | dose: 25.0 mg/kg/injection, schedule: Q01DX005 (ip), vehicle: saline 100 % of control | [1] 95 % of control | [4] 112 % of control

Cc1cc2c(cc1Cl)ncn2C
inactive: [6] 96 % of control | [7] 112 % of control | dose: 200.0 mg/kg/injection, schedule: Q01DX009 (ip), vehicle: saline 118 % of control

CC(Cl)CN1CC(C)OC1=O (stereo not given)
inactive: dose: 25.0 mg/kg/injection, schedule: Q01DX001 (ip), vehicle: saline 105 % of control | dose: 50.0 mg/kg/injection, schedule: Q01DX001 (ip), vehicle: saline 102 % of control | dose: 100.0 mg/kg/injection, schedule: Q01DX001 (ip), vehicle: saline 108 % of control | dose: 200.0 mg/kg/injection, schedule: Q01DX001 (ip), vehicle: saline 108 % of control

C/C(=C/c1cc(Br)c2c(c1)OCO2)[N+](=O)[O-]
inactive: dose: 100.0 mg/kg/injection, schedule: Q01DX001 (ip), vehicle: saline with Tween-80 110 % of control | dose: 200.0 mg/kg/injection, schedule: Q01DX001 (ip), vehicle: saline with Tween-80 100 % of control | dose: 400.0 mg/kg/injection, schedule: Q01DX001 (ip), vehicle: saline with Tween-80 99 % of control

COCN1C(=O)N2C(c3ccccc3)(c3ccccc3)C(C(=O)OC)=C(C(=O)OC)P12(c1ccccc1)c1ccccc1
inactive: dose: 15.0 mg/kg/injection, schedule: Q01DX005 (ip), vehicle: Klucel (hydroxypropylcellulose) (HPC) 107 % of control | dose: 30.0 mg/kg/injection, schedule: Q01DX005 (ip), vehicle: Klucel (hydroxypropylcellulose) (HPC) 99 % of control | dose: 60.0 mg/kg/injection, schedule: Q01DX005 (ip), vehicle: Klucel (hydroxypropylcellulose) (HPC) 91 % of control and 97 % of control | dose: 240.0 mg/kg/injection, schedule: Q01DX005 (ip), vehicle: Klucel (hydroxypropylcellulose) (HPC) 87 % of control

NN1CC(=O)N(c2ccccc2)CC1=O
inactive: [8] 100 % of control | dose: 100.0 mg/kg/injection, schedule: Q01DX009 (ip), vehicle: saline with Tween-80 94 % of control | dose: 200.0 mg/kg/injection, schedule: Q01DX009 (ip), vehicle: saline with Tween-80 94 % of control

CC1C=C(COC(=O)Nc2ccccc2)ON1c1ccccc1 (stereo not given)
inactive: dose: 100.0 mg/kg/injection, schedule: Q01DX001 (ip), vehicle: Klucel (hydroxypropylcellulose) (HPC) 108 % of control | dose: 200.0 mg/kg/injection, schedule: Q01DX001 (ip), vehicle: Klucel (hydroxypropylcellulose) (HPC) 97 % of control | dose: 400.0 mg/kg/injection, schedule: Q01DX001 (ip), vehicle: Klucel (hydroxypropylcellulose) (HPC) 100 % of control

COc1ccc2[nH]cc(CCN(C)C)c2c1
inactive: dose: 12.5 mg/kg/injection, schedule: Q01DX009 (ip), vehicle: saline with Tween-80 115 % of control | dose: 16.5 mg/kg/injection, schedule: Q01DX009 (ip), vehicle: saline with Tween-80 113 % of control | dose: 25.0 mg/kg/injection, schedule: Q01DX009 (ip), vehicle: saline with Tween-80 104 % of control | dose: 37.5 mg/kg/injection, schedule: Q01DX009 (ip), vehicle: saline with Tween-80 109 % of control | [8] 115 % of control

CCN(CC)c1nc(NNC(=S)NC)nc(N(CC)CC)n1
inactive: dose: 100.0 mg/kg/injection, schedule: Q04DX002 (ip), vehicle: saline with Tween-80 100 % of control | dose: 200.0 mg/kg/injection, schedule: Q04DX002 (ip), vehicle: saline with Tween-80 98 % of control | dose: 400.0 mg/kg/injection, schedule: Q04DX002 (ip), vehicle: saline with Tween-80 100 % of control

CCCCCCCCCCCC(=O)NCCc1ccc(O)c(O)c1
inactive: dose: 25.0 mg/kg/injection, schedule: Q04DX003 (ip), vehicle: Klucel (hydroxypropylcellulose) (HPC) 113 % of control | dose: 50.0 mg/kg/injection, schedule: Q04DX003 (ip), vehicle: Klucel (hydroxypropylcellulose) (HPC) 115 % of control | dose: 100.0 mg/kg/injection, schedule: Q04DX003 (ip), vehicle: Klucel (hydroxypropylcellulose) (HPC) 119 % of control and 120 % of control | [9] 113 % of control and 120 % of control | dose: 400.0 mg/kg/injection, schedule: Q04DX003 (ip), vehicle: Klucel (hydroxypropylcellulose) (HPC) 89 % of control

Cc1ccc(CCn2c3c(c4cc(Cl)ccc42)CN(C)CC3)cn1
inactive: [6] 99 % of control | [7] 102 % of control

N#C/C(=C\c1ccccn1)c1ccc(Cl)cc1
inactive: dose: 18.75 mg/kg/injection, schedule: Q01DX009 (none), vehicle: saline 100 % of control | dose: 37.5 mg/kg/injection, schedule: Q01DX009 (none), vehicle: saline 99 % of control | dose: 75.0 mg/kg/injection, schedule: Q01DX009 (none), vehicle: saline 90 % of control

CNC(=O)c1ccc[n+](C2OC(COC(C)=O)C(OC(C)=O)C2OC(C)=O)c1 (stereo not given)
inactive: [1] 100 % of control | [2] 97 % of control | [3] 91 % of control

CC(C)=CCC(OC(=O)CC(C)C)C1=CC(=O)c2c(O)ccc(O)c2C1=O (stereo not given)
inactive: dose: 6.25 mg/kg/injection, schedule: Q01DX005 (ip), vehicle: saline with Tween-80 94 % of control | dose: 12.5 mg/kg/injection, schedule: Q01DX005 (ip), vehicle: saline with Tween-80 103 % of control | dose: 25.0 mg/kg/injection, schedule: Q01DX005 (ip), vehicle: saline with Tween-80 99 % of control

C[Si]1(C)O[Si](C)(C)O[Si](C)(C)O[Si](C)(C)O1
inactive: dose: 50.0 mg/kg/injection, schedule: Q01DX005 (ip), vehicle: Klucel (hydroxypropylcellulose) (HPC) 100 % of control | dose: 100.0 mg/kg/injection, schedule: Q01DX005 (ip), vehicle: Klucel (hydroxypropylcellulose) (HPC) 97 % of control | dose: 200.0 mg/kg/injection, schedule: Q01DX005 (ip), vehicle: Klucel (hydroxypropylcellulose) (HPC) 97 % of control

O=C(OC1CCc2ccccc2C1)c1ccc(N=Nc2ccccc2)cc1 (stereo not given)
inactive: dose: 15.0 mg/kg/injection, schedule: Q01DX005 (ip), vehicle: saline with Tween-80 100 % of control | dose: 30.0 mg/kg/injection, schedule: Q01DX005 (ip), vehicle: saline with Tween-80 97 % of control | [10] 91 % of control | [11] 86 % of control

COC(=O)C(=O)c1c(C(=O)OC)nc2nnc(N)n2c1-c1ccc(O)c(OC)c1
inactive: [10] 92 % of control | [11] 94 % of control | dose: 240.0 mg/kg/injection, schedule: Q01DX005 (ip), vehicle: saline with Tween-80 94 % of control

C=C(C1=CC(=O)C(C)=C(OC(=O)C2(C)OC2C)C1=O)C(CC=C(C)C)OC(=O)/C(C)=C/C (stereo not given)
inactive: dose: 1.56 mg/kg/injection, schedule: Q01DX005 (ip), vehicle: Klucel (hydroxypropylcellulose) (HPC) 97 % of control | dose: 3.12 mg/kg/injection, schedule: Q01DX005 (ip), vehicle: Klucel (hydroxypropylcellulose) (HPC) 97 % of control | dose: 6.25 mg/kg/injection, schedule: Q01DX005 (ip), vehicle: Klucel (hydroxypropylcellulose) (HPC) 99 % of control | dose: 12.5 mg/kg/injection, schedule: Q01DX005 (ip), vehicle: Klucel (hydroxypropylcellulose) (HPC) 99 % of control | dose: 25.0 mg/kg/injection, schedule: Q01DX005 (ip), vehicle: Klucel (hydroxypropylcellulose) (HPC) 99 % of control

CC(Cl)CN(Cc1cc(O)c(CN(CC(C)Cl)CC(C)Cl)cc1O)CC(C)Cl (stereo not given)
inactive: [9] 118 % of control

CCCCCC(=O)Nc1ncc([N+](=O)[O-])s1
inactive: dose: 50.0 mg/kg/injection, schedule: Q01DX009 (ip), vehicle: Klucel (hydroxypropylcellulose) (HPC) 116 % of control | dose: 100.0 mg/kg/injection, schedule: Q01DX009 (ip), vehicle: Klucel (hydroxypropylcellulose) (HPC) 113 % of control | dose: 200.0 mg/kg/injection, schedule: Q01DX009 (ip), vehicle: Klucel (hydroxypropylcellulose) (HPC) 98 % of control

Cc1ccc2oc(-c3nnc(N)s3)cc(=O)c2c1
inactive: [1] 100 % of control | [2] 100 % of control | [3] 93 % of control
